Results from patent US20110281802A1, “COMPOSITION FOR TREATMENT AND PREVENTION OF HAIR LOSS AND PREMATURE GRAYING OF HAIR” (Immudiagnostik AG, priority 2007, published 2011).

Assays:
[1] = tested on: human anagen hair follicles; test: Ki67/TUNEL staining, percentage of proliferating cells, assay #3; type: cell-based; conditions: after 9 days of culture, Anagen only
Procedure: Assay #3 Culture HF 446: Eight hair follicle cultures (3 follicles/well) were treated with various concentration of test substance as described for 2 days, followed by snap freezing and sectioning of two wells. Six wells were treated up to 9 days, then snap frozen and sectioned. The distribution of test substances and concentrations were as indicted in FIG. 3. The parameter measured after two days was proliferation/apoptosis, and the parameters measured after 9 days were elongation, proportion of cells in proliferation/apoptosis, and hair cycle stage
After nine days, Ki67/TUNEL staining was performed and photos taken.
Proliferating and resting cells as well as cells undergoing apoptosis were counted separately proximal Auber's line. Results are expressed as percentages. For Ki-67/TUNEL staining, fixed sections were incubated for 60 minutes in a solution comprising 30% TdT-enzyme (Chemicon International, Inc., Temecula, Calif., USA; CatNo S1707). 2 mL stop buffer (Chemicon International, Inc.; CatNo S7110), diluted in 68 mL distilled water, was added for 10 minutes to stop the reaction. This was followed by a pre-incubation for 20 minutes with 10% goat serum (Dako Cytomation, CatNo 50114121) and incubation with mouse-anti human Ki-67 antigen (Chemicon International, Inc., CatNo S7110) 1:20 in PBS with 2% goat serum. The fixed section was then washed in PBS, treated with anti-digoxigenin antibody (Chemicon International, Inc., CatNo S7110) (59DI Antibody solution and 5601 Stop solution, 30 minutes) and goat anti-mouse-IgG-rhodamine red (Jackson Immuno Research, Suffolk, UK; CatNo 115-295-062), 1:200 in PBS with 2% goat serum. After washes with PBS, counterstaining with DAPI™ ([…]) (Roche, Basel, Switzerland; CatNo 236276) and further washes with PBS and mounting using Fluoromount (Southern Biotech, Birmingham, Ala., USA; CatNo 0100-01).
After nine days, Ki67/TUNEL staining was performed and photos were taken. In anagen hair follicles, proliferating cells and cells undergoing apoptosis were counted separately proximal Auber's line. Results are expressed as percentages. […] The results are summarized in Table 6 and FIG. 9 showing the mean percentage of Ki6 7 positive cells with SEM

Prolactin = test: Immunohistochemical staining of treated hair follicles for prolactin (assay #6); type: cell-based, human; conditions: 10 pg/mL and 100 pg/mL, few hair follicles, very preliminary
Procedure: The staining was performed according to the following protocol:
A. Prolactin: Pre-treatment with 0.5% Triton X (Fluka, Sigma Aldrich, Taufkirchen, Germany; CatNo 93420) in TBS for 10 minutes at room temperature, three washings in TBS for five minutes each, treatment with 0.6% H2O2 in methanol three times for 15 minutes, washes in TBS. Pre-incubation with 10% rabbit serum (Dako Cytomation, CatNo X0902) in TBS with 3% BSA for 20 minutes, incubation with primary antibody (goat anti-human prolactin, Santa Cruz Biotechnology, Inc., Santa Cruz, Calif., USA; CatNo SC-7805), dilution 1:100 in TBS+2% rabbit serum (Dako Cytomation, CatNo X0902) overnight at 4° C. Thereafter washes in TBS. Incubation with secondary antibody (rabbit anti-goat-biotinylated, DAKO Cytomation, CatNo E0466) diluted to 1:200 with 2% rabbit serum in TBS for 45 minutes at room temperature. Treatment with Avidin Biotin Complex-alkaline phosphatase (Vector Laboratories, Burlingame, Calif., USA; CatNo AK-5000) for 30 minutes, then washing in TBS. Thereafter treatment with Fast Red Tablets (Sigma-Aldrich, CatNo F4648-50SET) for 6 minutes. Counterstaining with Mayer's Haemalaun (Chroma Muenster, CatNo 2E038) and mounting with Aquamount (DAKO Cytomation, CatNo S3025).
In both assays human pituitary gland was set as positive control and negative control were hair follicles treated without the primary antibody.

human hair follicles = test: Hair cycle staging of cultured hair follicles (assays #1, #2, #3); type: cell-based
Procedure: (§1) Photodocuments from the Fontana Masson staining were used for hair follicle staging according to previously well-defined morphological criteria (Stenn K S et al, Controls of Hair Follicle Cycling; Physiol Rev 2001, 81:449-494, Müller-Röver S et al, A Comprehensive Guide for the Accurate Classification of Murine Hair Follicles in Distinct Hair Cycle Stages; J Invest Dermatol 2001, 117:3-15). The percentage of hair follicles in anagen, early, mid and late catagen was determined.
as §1, with “determined in the different assays.” for “determined.”

TSH = test: Immunohistochemical staining of treated hair follicles for TSH (assay #6); type: cell-based, human; conditions: few slides only
Procedure: Assay #6—Stimulation of expression of pituitary hormones by Thymulin (PRL+TSH): Hair follicles from the occipital area of a person were cultured for 9 days and treated with culture medium and thymulin 10 pg/mL (human thymulin, No A9530AG.1; Immundiagnostik AG, Bensheim, Germany) as described above, then snap frozen and sectioned. The staining was performed according to the following protocol:
B. TSH: Pre-incubation with 10% goat serum (Dako Cytomation, CatNo 50114121) in TBS for 20 minutes, then incubation with primary antibody (mouse anti-human TSH, Dianova, Hamburg, Germany, CatNo DLN 07830), dilution 1:20 in TBS+2% goat serum (Dako Cytomation, CatNo 50114121) overnight at 4° C. Thereafter washing in TBS. Incubation with secondary antibody (goat anti-mouse-biotinylated, Beckman Coulter, Inc. Fullerton, Calif., USA, CatNo IM0816) diluted to 1:200 with 2% goat serum in TBS for 45 minutes at room temperature. Treatment with avidin/biotin-complex coupled with alkaline phosphatase (Vector Laboratories, Burlingame, Calif., USA; CatNo AK-5000) for 30 minutes, then washes in TBS. Thereafter treatment with Fast Red Tablets (Sigma-Aldrich, CatNo F4648-50SET) for 6 minutes. Counterstaining with Mayer's Haemalaun (Chroma Muenster, CatNo 2E038) and mounting with Aquamount (DAKO Cytomation, CatNo S3025). […]

Substance	Mean percentage of Ki67-positive cells ([1]; 10 pg/mL) [percentage]	Mean percentage of Ki67-positive cells ([1]; 100 pg/mL) [percentage]	Immunoreactivity for Prolactin in treated hair follicles (in words) (Prolactin)	Proportion of HFs in anagen compared with control groups (in words) (human hair follicles; 10 pg and 100 pg/mL, three assays, 9-day treatment)	Immunoreactivity for TSH, treated versus control hair follicles (in words) (TSH)	Mean percentage of Ki67-positive cells ([1]; 100 ng/mL) [percentage]	Mean percentage of Ki67-positive cells ([1]; 1000 ng/mL) [percentage]	Proportion in catagen compared to control (in words) (human hair follicles; 100 ng, Assay #1 and #3)	Proportion in the stage of anagen compared with controls (in words) (human hair follicles; 1000 ng/mL, after nine days)
thymulin	31.58	35.75	some additional staining in the IRS	consistently a higher proportion of HFs in anagen than control groups	Did not Show any Differences				
Thymosin beta-4 [TB4]						39.30	33.14	higher proportion of cells in catagen compared to control	consistently more cells in the stage of anagen
